Key:
[1] = test system: RPMI-8226 subcutaneous xenograft; assay: RPMI-8226 xenograft tumor model; details: after 42 days; TCH-165 100 mg/kg bid oral; bortezomib 0.375 reduced to 0.09 mg/kg i.v. 3X per week
[2] = test system: primary human MM cells of newly diagnosed patient; assay: Primary cell viability, CellTiter-Glo, 72 h
Source text: (§1) White blood cells (WBCs) were separated from red blood cells by the Ficoll density gradient. Multiple myeloma cells were then isolated from WBCs using human CD138 affinity magnetic beads (Miltenyi Biotec; cat#130-093-062; Gaithersburg, MD, USA) following the manufacturer’s protocol. Cells were cryopreserved in 10% DMSO in FBS. Revived cells were maintained in an RPMI medium with 10% FBS for 10 days prior to treatment. […] Cells were equilibrated to RT and CellTiter-Glo (Promega; Madison, WI, USA) solution (100 μL) was added and incubated with shaking for 10 min at RT. The assay plate was then allowed to equilibrate for 5 min at RT and luminescent readings were taken on a SpectraMax® M5. Data are presented as a percentage of the vehicle control for each experimental condition, after background subtraction. Error bars represent SD for triplicate wells.

[3] = test system: primary cells from a BTZ refractory MM patient; assay: Primary cell viability, CellTiter-Glo, 72 h; details: Homo sapiens
Source text: as §1

SMILES: CC(C)C[C@H](NC(=O)[C@H](Cc1ccccc1)NC(=O)c1cnccn1)B(O)O [bortezomib, reference compound]
- average tumor volume [1]: 771.41 (±129.35) mm^3
- CC50 [2]: 4 nM
- CC50 [3]: > 1000 nM

Reference: paper PMC9138505, “Small Molecule 20S Proteasome Enhancer Regulates MYC Protein Stability and Exhibits Antitumor Activity in Multiple Myeloma” (Biomedicines, 2022)
